# Experimental data published in patent US20040029197A1, “Novel human cancer/testis antigen and gene thereof” (priority 2000, published 2004).
# Where no end group is shown, it is not given here.
# System: C1R-A24 cells
# Test: Cytotoxity test (51Cr release) with peptide-stimulated CD8-positive T cells of a cancer patient
# Type: cell-based, human
# Settings: target C1R-A24 cells added with 1 iM of the peptide, effecter CD8-positive T cells after MLPC twice, six hours, FIG. 8
# Procedure: Peripheral blood of a patient whose D40 gene expression in the tumor tissue was observed by RT-PCR method was multi-layered in Ficoll-Conray solution with specific gravity of 1.082 and the blood was separated to plasma, lymphocyte phase, Ficoll-Conray phase and erythrocyte phase from the top by centrifugation of 1500 rpm for 30 min. The lymphocyte phase was collected and cultured for a day in AIM-V, a serum-free medium, after which the cell population adhered to the bottom of the culture flask and the suspended cell population were separated by gently shaking the flask. The adhered cell population is a cell population called PBMC (peripheral blood mononuclear cells) which includes B cells, macrophages and dendritic cells that are so-called antigen-presenting cells (APC). […] The APC after the culture were treated with radioactivity in order to get rid of their proliferation ability.
# On the other hand, the suspended cell population mainly contains T cells and these suspended cells were cultured in AIM−V+IL−2 for four days. […] These CD8-positive T cells were added to APC, which have been treated with radioactivity as mentioned above, and cultured for two days. […] Then the radioactivity of ^51Cr released from the target C1R-A24 cells were measured and the cytotoxity activity (%) was calculated. […]
sequence,measurement,value
"SYTIEINHRL [SYTIEINHRL, Ser-Tyr-Thr-Ile-Glu-Ile-Asn-His-Arg-Leu]",cytotoxic activity of T cells derived from peripheral blood of a cancer patient,specifically injured target C1R-A24 cells
